Data: PubChem BioAssay (NCI)
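These data come from cells grown in 96-well plates and exposed to compound for 48 hours at five concentrations. GI50 is the concentration that inhibits growth by half. TGI marks complete inhibition of growth.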

What was measured:
Test in all cases: NCI-60 cell line screen, 48 h
786-0 renal = test system: 786-0 renal
A498 renal = test system: A498 renal
A549 NSCLC = test system: A549 NSCLC
ACHN renal = test system: ACHN renal
BT-549 breast = test system: BT-549 breast
CAKI-1 renal = test system: CAKI-1 renal
CCRF-CEM leukemia = test system: CCRF-CEM leukemia
COLO 205 colon = test system: COLO 205 colon
DU-145 prostate = test system: DU-145 prostate
EKVX NSCLC = test system: EKVX NSCLC
HCC-2998 colon = test system: HCC-2998 colon
HCT-116 colon = test system: HCT-116 colon
HCT-15 colon = test system: HCT-15 colon
HL-60(TB) leukemia = test system: HL-60(TB) leukemia
HOP-62 NSCLC = test system: HOP-62 NSCLC
HOP-92 NSCLC = test system: HOP-92 NSCLC
HS 578T breast = test system: HS 578T breast
HT29 colon = test system: HT29 colon
IGROV1 ovarian = test system: IGROV1 ovarian
K-562 leukemia = test system: K-562 leukemia
KM12 colon = test system: KM12 colon
LOX IMVI melanoma = test system: LOX IMVI melanoma
M14 melanoma = test system: M14 melanoma
MALME-3M melanoma = test system: MALME-3M melanoma
MCF7 breast = test system: MCF7 breast
MDA-MB-231 breast = test system: MDA-MB-231 breast
MDA-MB-435 = test system: MDA-MB-435
MOLT-4 leukemia = test system: MOLT-4 leukemia
NCI-H226 lung = test system: NCI-H226 lung

CCOc1ccc(NC2=C(Cl)C(=O)c3nc(C)ccc3C2=O)cc1
GI50 (786-0 renal): 1720 nM
TGI (786-0 renal): 3.19 µM
GI50 (A498 renal): 1560 nM
TGI (A498 renal): 5.52 µM
GI50 (A549 NSCLC): 2090 nM
TGI (A549 NSCLC): 4.64 µM
GI50 (ACHN renal): 1570 nM
TGI (ACHN renal): 2920 nM
GI50 (BT-549 breast): 1430 nM
TGI (BT-549 breast): 2800 nM
GI50 (CAKI-1 renal): 1600 nM
TGI (CAKI-1 renal): 2970 nM
GI50 (CCRF-CEM leukemia): 2110 nM
TGI (CCRF-CEM leukemia): > 100 µM
GI50 (COLO 205 colon): 1860 nM
TGI (COLO 205 colon): 3.64 µM
GI50 (DU-145 prostate): 1720 nM
TGI (DU-145 prostate): 3.13 µM
GI50 (EKVX NSCLC): 1610 nM
TGI (EKVX NSCLC): 3.12 µM
GI50 (HCC-2998 colon): 1760 nM
TGI (HCC-2998 colon): 3.25 µM
GI50 (HCT-116 colon): 1320 nM
TGI (HCT-116 colon): 2790 nM
GI50 (HCT-15 colon): 1300 nM
TGI (HCT-15 colon): 2950 nM
GI50 (HL-60(TB) leukemia): 1470 nM
TGI (HL-60(TB) leukemia): 4.18 µM
GI50 (HOP-62 NSCLC): 1740 nM
TGI (HOP-62 NSCLC): 3.23 µM
GI50 (HOP-92 NSCLC): 2020 nM
TGI (HOP-92 NSCLC): 3.51 µM
GI50 (HS 578T breast): 2220 nM
TGI (HS 578T breast): 5.82 µM
GI50 (HT29 colon): 2870 nM
TGI (HT29 colon): 7.08 µM
GI50 (IGROV1 ovarian): 1360 nM
TGI (IGROV1 ovarian): 2760 nM
GI50 (K-562 leukemia): 1170 nM
TGI (K-562 leukemia): > 100 µM
GI50 (KM12 colon): 1440 nM
TGI (KM12 colon): 3.07 µM
GI50 (LOX IMVI melanoma): 1060 nM
TGI (LOX IMVI melanoma): 2330 nM
GI50 (M14 melanoma): 1680 nM
TGI (M14 melanoma): 3.23 µM
GI50 (MALME-3M melanoma): 1650 nM
TGI (MALME-3M melanoma): 3.16 µM
GI50 (MCF7 breast): 1540 nM
TGI (MCF7 breast): 3.82 µM
GI50 (MDA-MB-231 breast): 1170 nM
TGI (MDA-MB-231 breast): 2500 nM
GI50 (MDA-MB-435): 442 nM
TGI (MDA-MB-435): 1530 nM
GI50 (MOLT-4 leukemia): 2490 nM
TGI (MOLT-4 leukemia): > 100 µM
GI50 (NCI-H226 lung): 1840 nM
